Results reported in patent publication US9771337B2, “Neprilysin inhibitors” (THERAVANCE BIOPHARMA R&D IP, LLC, priority 2011, dated 2017).

Target: T1, human NEP (Homo sapiens, UniProt P08473)
T1 construct: purchased R&D Systems, Minneapolis, Minn; 1182-ZN
Assay: In vitro enzyme inhibition assay, inhibitor potency at human NEP
Format: biochemical
Conditions: pKi values at human NEP; recombinant human NEP, fluorogenic peptide substrate 10 μM, 37° C.
Protocol: The inhibitory activities of compounds at human and rat neprilysin (EC 3.4.24.11; NEP) and human angiotensin converting enzyme (ACE) were determined using in vitro assays as described below.
Recombinant human NEP and recombinant human ACE were obtained commercially (R&D Systems, Minneapolis, Minn., catalog numbers 1182-ZN and 929-ZN, respectively). The fluorogenic peptide substrate Mca-D-Arg-Arg-Leu-Dap-(Dnp)-OH (Medeiros et al. (1997) Braz. J. Med. Biol. Res. 30:1157-62; Anaspec, San Jose, Calif.) and Abz-Phe-Arg-Lys(Dnp)-Pro-OH (Araujo et al. (2000) Biochemistry 39:8519-8525; Bachem, Torrance, Calif.) were used in the NEP and ACE assays respectively.
The assays were performed in 384-well white opaque plates at 37° C. using the fluorogenic peptide substrates at a concentration of 10 μM in Assay Buffer (NEP: 50 mM HEPES, pH 7.5, 100 mM NaCl, 0.01% polyethylene glycol sorbitan monolaurate (Tween-20), 10 μM ZnSO4; ACE: 50 mM HEPES, pH 7.5, 100 mM NaCl, 0.01% Tween-20, 1 μM ZnSO4).
Test compounds were assayed over the range of concentrations from […] to 20 μM. Test compounds were added to the enzymes and incubated for 30 minute at 37° C. prior to initiating the reaction by the addition of substrate. Reactions were terminated after 20 minutes of incubation at 37° C. by the addition of glacial acetic acid to a final concentration of 3.6% (v/v).
Plates were read on a fluorometer with excitation and emission wavelengths set to 320 nm and 405 nm, respectively. Inhibition constants were obtained by nonlinear regression of the data using the equation (GraphPad Software, Inc., San Diego, Calif.): v=v0/[1+(I/K′)] where v is the reaction rate, v0 is the uninhibited reaction rate, I is the inhibitor concentration and K′ is the apparent inhibition constant.
Compounds of the invention were tested in this assay and found to have pKi values at human NEP as follows.

T1 sequence (P08473 whole entry): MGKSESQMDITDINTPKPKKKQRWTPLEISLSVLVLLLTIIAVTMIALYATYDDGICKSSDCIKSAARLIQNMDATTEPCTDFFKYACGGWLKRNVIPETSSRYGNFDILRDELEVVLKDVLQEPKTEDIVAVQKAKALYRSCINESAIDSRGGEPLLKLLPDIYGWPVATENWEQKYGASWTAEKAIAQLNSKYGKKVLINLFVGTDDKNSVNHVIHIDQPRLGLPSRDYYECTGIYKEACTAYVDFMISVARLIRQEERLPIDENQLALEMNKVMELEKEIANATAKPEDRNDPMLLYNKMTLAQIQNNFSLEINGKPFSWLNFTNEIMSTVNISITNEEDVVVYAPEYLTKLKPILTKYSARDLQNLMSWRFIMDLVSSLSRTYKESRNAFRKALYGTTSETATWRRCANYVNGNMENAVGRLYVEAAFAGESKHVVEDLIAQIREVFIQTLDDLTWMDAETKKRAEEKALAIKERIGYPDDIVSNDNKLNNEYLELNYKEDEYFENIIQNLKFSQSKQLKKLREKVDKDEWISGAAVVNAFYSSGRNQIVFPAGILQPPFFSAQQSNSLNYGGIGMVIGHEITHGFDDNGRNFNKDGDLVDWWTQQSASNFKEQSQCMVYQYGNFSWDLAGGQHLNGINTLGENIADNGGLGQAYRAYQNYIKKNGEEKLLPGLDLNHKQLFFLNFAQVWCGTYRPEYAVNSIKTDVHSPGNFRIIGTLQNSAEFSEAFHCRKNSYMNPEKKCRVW

Row | Structure (SMILES) | Ki
1 | O=C(N[C@H](Cc1ccccc1Cl)[C@@H](O)C(=O)O)c1cnc2nn[nH]c2c1 [Example 2-37, (2R,3R)-4-(2-Chloro-phenyl)-2-hydroxy-3-[(1H-[1,2,3]triazolo[4,5-b]pyridine-6-carbonyl)-amino]-butyric acid] | 0.00126 to 0.01 µM
2 | Cc1cc(C(=O)N[C@@H](CC(=O)O)Cc2ccccc2Cl)cc2[nH]nnc12 [Example 7-2, (R)-4-(2-Chloro-phenyl)-3-[(7-methyl-3H-benzotriazole-5-carbonyl)-amino]-butyric acid] | 0.0126 to 0.1 µM
3 | O=C(N[C@H](Cc1ccccc1)[C@@H](O)C(=O)O)c1ccc2c(c1)N1CCCC1C(=O)N2 (stereo partly drawn) [Example 5-1, (2R,3R)-2-Hydroxy-3-[(4-oxo-1,2,3,3a,4,5-hexahydro-pyrrolo[1,2-a]quinoxaline-8-carbonyl)-amino]-4-phenyl-butyric acid] | 0.0126 to 0.1 µM
4 | O=C(O)C[C@@H](Cc1ccccc1Cl)NC(=O)c1cnn[nH]1 [Example 7-1, (R)-4-(2-Chloro-phenyl)-3-[(3H-[1,2,3]triazole-4-carbonyl)-amino]-butyric acid] | 0.0126 to 0.1 µM
5 | O=C(N[C@H](Cc1ccccc1Cl)[C@@H](O)C(=O)O)c1cn(Cc2ccccc2)nn1 [Example 2-20, (2R,3R)-3-[(1-Benzyl-1H-[1,2,3]triazole-4-carbonyl)-amino]-4-(2-chloro-phenyl)-2-hydroxy-butyric acid] | 0.0126 to 0.1 µM
6 | CCCc1nc2c(C)cc(C(=O)N[C@H](Cc3ccccc3)[C@@H](O)C(=O)O)cc2n1CC(=O)O [Example 5-5, (2R,3R)-3-[(3-Carboxymethyl-7-methyl-2-propyl-3H-benzoimidazole-5-carbonyl)-amino]-2-hydroxy-4-phenyl-butyric acid] | 0.0126 to 0.1 µM
7 | Cc1nc(C(=O)N[C@H](Cc2ccccc2Cl)[C@@H](O)C(=O)O)nn1-c1ccc(Cl)cc1 [Example 2-22, (2R,3R)-4-(2-Chloro-phenyl)-3-{[1-(4-chloro-phenyl)-5-methyl-1H-[1,2,4]triazole-3-carbonyl]-amino}-2-hydroxy-butyric acid] | 0.0126 to 0.1 µM
8 | CCCc1nc2c(C)cc(C(=O)N[C@H](Cc3ccccc3)[C@@H](O)C(=O)O)cc2n1Cc1cccnc1 [Example 5-3, (2R,3R)-2-Hydroxy-3-[(7-methyl-2-propyl-3-pyridin-3-ylmethyl-3H-benzoimidazole-5-carbonyl)-amino]-4-phenyl-butyric acid] | 0.0126 to 0.1 µM
9 | CCc1nc2c(Cl)cc(C(=O)N[C@H](Cc3ccccc3)[C@@H](O)C(=O)O)cc2[nH]1 [Example 5-9, (2R,3R)-3-[(7-Chloro-2-ethyl-3H-benzoimidazole-5-carbonyl)-amino]-2-hydroxy-4-phenyl-butyric acid] | 0.0126 to 0.1 µM
10 | O=C(N[C@H](Cc1ccccc1Cl)[C@@H](O)C(=O)O)c1cnc(O)cn1 [Example 2-34, (2R,3R)-4-(2-Chloro-phenyl)-2-hydroxy-3-[(5-hydroxy-pyrazine-2-carbonyl)-amino]-butyric acid] | 0.0126 to 0.1 µM
11 | O=C(N[C@H](Cc1ccccc1Cl)[C@H](O)C(=O)O)c1cnn[nH]1 [Example 2-19, (2S,3R)-4-(2-Chloro-phenyl)-2-hydroxy-3-[(3H-[1,2,3]triazole-4-carbonyl)-amino]-butyric acid] | 0.0126 to 0.1 µM
12 | O=C(N[C@H](Cc1ccccc1Cl)[C@@H](O)C(=O)O)c1cn(O)nn1 [Example 2-21, (2R,3R)-4-(2-Chloro-phenyl)-2-hydroxy-3-[(1-hydroxy-1H-[1,2,3]triazole-4-carbonyl)-amino]-butyric acid] | 0.0126 to 0.1 µM
13 | O=C(O)C[C@@H](Cc1ccccc1Cl)NC(=O)c1cnc(O)nc1 [Example 7-8, (R)-4-(2-Chloro-phenyl)-3-[(2-hydroxy-pyrimidine-5-carbonyl)-amino]-butyric acid] | 0.00126 to 0.01 µM
14 | O=C(N[C@H](Cc1ccccc1Cl)[C@@H](O)C(=O)O)c1ccnc(-c2ccccc2C(=O)O)c1 [Example 2-2, 2-{4-[(1R,2R)-2-Carboxy-1-(2-chloro-benzyl)-2-hydroxy-ethylcarbamoyl]-pyridin-2-yl}-benzoic acid] | ≤ 0.001 µM
15 | O=C(O)C[C@@H](Cc1ccccc1Cl)NC(=O)c1cc(F)c2[nH]nnc2c1 [Example 7-6, (R)-4-(2-Chloro-phenyl)-3-[(7-fluoro-1H-benzotriazole-5-carbonyl)-amino]-butyric acid] | 0.0126 to 0.1 µM
16 | O=C(N[C@H](Cc1ccccc1Cl)[C@@H](O)C(=O)O)c1cc(C(=O)O)c2[nH]nnc2c1 [Example 2-31, 6-[(1R,2R)-2-Carboxy-1-(2-chloro-benzyl)-2-hydroxy-ethylcarbamoyl]-3H-benzotriazole-4-carboxylic acid] | 0.0126 to 0.1 µM

Row | Structure (SMILES) | Ki
17 | O=C(N[C@H](Cc1ccccc1Cl)[C@@H](O)C(=O)O)c1cc(-c2cccc(Cl)c2)no1 [Example 2-13, (2R,3R)-4-(2-Chloro-phenyl)-3-{[3-(3-chloro-phenyl)-isoxazole-5-carbonyl]-amino}-2-hydroxy-butyric acid] | 0.00126 to 0.01 µM
18 | O=C(N[C@H](Cc1ccccc1Cl)[C@@H](O)C(=O)O)c1cc(=O)n(Cc2ccc(Cl)cc2F)o1 [Example 2-16, (2R,3R)-3-{[2-(4-Chloro-2-fluoro-benzyl)-3-oxo-2,3-dihydro-isoxazole-5-carbonyl]-amino}-4-(2-chloro-phenyl)-2-hydroxy-butyric acid] | 0.00126 to 0.01 µM
19 | O=C(O)C[C@@H](Cc1ccccc1Cl)NC(=O)c1ccc2nn[nH]c2c1 [Example 7-3, (R)-3-[(3H-Benzotriazole-5-carbonyl)-amino]-4-(2-chloro-phenyl)-butyric acid] | 0.0126 to 0.1 µM
20 | Cc1cc(C(=O)N[C@H](Cc2ccccc2Cl)[C@H](O)C(=O)O)cc2[nH]nnc12 [Example 2-30, (2S,3R)-4-(2-Chloro-phenyl)-2-hydroxy-3-[(7-methyl-3H-benzotriazole-5-carbonyl)-amino]-butyric acid] | 0.0126 to 0.1 µM
21 | O=C(N[C@H](Cc1ccccc1Cl)[C@H](O)C(=O)O)c1cc(Cl)c2nn[nH]c2c1 [Example 2-28, (2S,3R)-3-[(7-Chloro-3H-benzotriazole-5-carbonyl)-amino]-4-(2-chloro-phenyl)-2-hydroxy-butyric acid] | 0.00126 to 0.01 µM
22 | Cc1cc(C(=O)N[C@H](Cc2ccccc2Cl)[C@@H](O)C(=O)O)cc(-c2ccccc2C(=O)O)n1 [Example 2-4, 2-{4-[(1R,2R)-2-Carboxy-1-(2-chloro-benzyl)-2-hydroxy-ethylcarbamoyl]-6-methyl-pyridin-2-yl}-benzoic acid] | 0.00126 to 0.01 µM
23 | O=C(N[C@H](Cc1ccccc1Cl)[C@@H](O)C(=O)O)c1cnc2[nH]cnc2c1 [Example 2-36, (2R,3R)-4-(2-Chloro-phenyl)-2-hydroxy-3-[(3H-imidazo[4,5-b]pyridine-6-carbonyl)-amino]-butyric acid] | 0.0126 to 0.1 µM
24 | O=C(N[C@H](Cc1ccccc1Cl)[C@@H](O)C(=O)O)c1nn(Cc2ccc(Cl)cc2F)c(=O)[nH]1 [Example 2-23, (2R,3R)-3-{[1-(4-Chloro-2-fluoro-benzyl)-5-oxo-4,5-dihydro-1H-[1,2,4]triazole-3-carbonyl]-amino}-4-(2-chloro-phenyl)-2-hydroxy-butyric acid] | 0.0126 to 0.1 µM
25 | O=C(N[C@H](Cc1ccccc1)[C@@H](O)C(=O)O)c1ccc2nn[nH]c2c1 [Example 5-11, (2R,3R)-3-[(3H-Benzotriazole-5-carbonyl)-amino]-2-hydroxy-4-phenyl-butyric acid] | 0.0126 to 0.1 µM
26 | O=C(N[C@H](Cc1ccccc1Cl)[C@@H](O)C(=O)O)c1cnc(O)nc1 [Example 2-35, (2R,3R)-4-(2-Chloro-phenyl)-2-hydroxy-3-[(2-hydroxy-pyrimidine-5-carbonyl)-amino]-butyric acid] | ≤ 0.001 µM
27 | O=C(N[C@H](Cc1ccccc1)[C@@H](O)C(=O)O)c1cc(-c2ccccc2C(=O)O)ccn1 [Example 5-26, 2-[2-((1R,2R)-1-Benzyl-2-carboxy-2-hydroxy-ethylcarbamoyl)-pyridin-4-yl]-benzoic acid] | 0.00126 to 0.01 µM
28 | O=C(N[C@H](Cc1ccccc1)[C@@H](O)C(=O)O)c1cc(F)c2[nH]nnc2c1 [Example 5-16, (2R,3R)-3-[(7-Fluoro-1H-benzotriazole-5-carbonyl)-amino]-2-hydroxy-4-phenyl-butyric acid] | 0.0126 to 0.1 µM
29 | O=C(N[C@H](Cc1ccccc1Cl)[C@@H](O)C(=O)O)c1cc(-c2ccc(Cl)cc2)no1 [Example 2-14, (2R,3R)-4-(2-Chloro-phenyl)-3-{[3-(4-chloro-phenyl)-isoxazole-5-carbonyl]-amino}-2-hydroxy-butyric acid] | 0.00126 to 0.01 µM
30 | O=C(O)C[C@@H](Cc1ccccc1Cl)NC(=O)c1cnc2nn[nH]c2c1 [Example 7-7, (R)-4-(2-Chloro-phenyl)-3-[(1H-[1,2,3]triazolo[4,5-b]pyridine-6-carbonyl)-amino]-butyric acid] | 0.0126 to 0.1 µM
31 | O=C(N[C@H](Cc1ccccc1)[C@@H](O)C(=O)O)c1cc2cccn2cn1 [Example 5-30, (2R,3R)-2-Hydroxy-4-phenyl-3-[(pyrrolo[1,2-c]pyrimidine-3-carbonyl)-amino]-butyric acid] | 0.0126 to 0.1 µM
